In patent US20140284001A1, “SYSTEMS AND METHODS FOR SPRAY DRYING IN MICROFLUIDIC AND OTHER SYSTEMS” (President and Fellows Of Harvard College, priority 2012, published 2014) one finds average nanoparticle diameters data, which are given here for one compound.

The nature of the data set: size of spray dried nanoparticles by scanning electron microscopy (SEM). It is filed as physicochemical. The note with it: dissolved in ethanol, spray dried with microfluidic nebulator, flow-focusing nebulization unit, four air inlets, 2.8 bar, 1 ml/h, collected 10 cm from outlet.

Consider `Clc1ccccc1C(c1ccccc1)(c1ccccc1)n1ccnc1` [clotrimazole], for which the average nanoparticle diameters is on record as 24+/−8 nm.
